Reference: patent US11421280B2 (DENOVO BIOPHARMA LLC, priority 2016, dated 2022)
Entries after “also recorded” stand apart in the source; their conditions may differ.

Assays:
[1] = system: other PKC isoforms (α, γ, ε); details: Graff et al. 2005; read-out: IC50s other PKC isoforms (α, γ, ε); cited from earlier work
GBM patients = test: S008 GBM phase 1/2 first line trial; type: in vivo, human
From the text: FIG. 4A is a Kaplan-Meier plot showing time to overall survival in the AA+AB group and BB group. FIG. 4B is a Kaplan-Meier plot showing time to overall survival in the chromaturia group and non-chromaturia group.
The DNA samples from blood of GBM patients in S008 trials were used to genotype rs309605 by Taqman assay.

[2] = system: VEGF induced angiogenesis; details: oral dosing, plasma exposure similar to human clinical trials; cited from earlier work
[3] = system: human cancer xenografts (colorectal carcinomas, glioblastomas, diffuse large B-Cell lymphomas, Waldenstrom's macroglobulinemia, multiple myeloma); details: single-agent treatment; cited from earlier work
DLBCL patients [4] = test: S028 phase 2 DLBCL 1st line trial, enzastaurin in combination with R-CHOP; type: in vivo, human
Experimental: Thus, subgroup analysis was conducted using both IPI and rs309605 and rs309604.

[5] = system: cultured cancer cells (colon, NSCLC, glioblastoma, diffuse large B-cell and cutaneous T-cell lymphoma, multiple myeloma, Waldenstrom's macroglobulinemia); details: cited from earlier work
DLBCL patients [6] = test: Prelude phase 3 DLBCL maintenance trial, survival analysis by chromaturia and rs309605 genotype; type: in vivo, human
From the text: Prelude trial is a multicenter, phase 3, randomized, double-blind, placebo-controlled trial enrolled patients at high risk of recurrence following rituximab-cyclophosphamide, doxorubicin, vincristine, and prednisone (R-CHOP). […] Primary endpoint was DFS 3 years after the last patient entered treatment (FIG. 1A).
Unlike most oncology biomarker studies focusing on mutations or target protein overexpression in tumor cells, germline genetic polymorphisms also contribute to the various responses to the same drug in different patients.
For both rs309605 and rs309604, allele A represents T and allele B represents C. […] A p-value smaller than 5×10^−8 is usually considered the threshold for genome-wide significance.
To examine whether rs309605 is merely a prognostic biomarker, DNA samples from 238 patients from placebo control group were genotyped at rs309605 using the Taqman SNP assays.

[7] = enzastaurin arm, rs309605/rs309604
[8] = enzastaurin arm, rs309605/rs309604, p-value 5.75×10^−9

Compound: Cn1cc(C2=C(c3cn(C4CCN(Cc5ccccn5)CC4)c4ccccc34)C(=O)NC2=O)c2ccccc21 [enzastaurin, 3-(1-methyl-1H-indol-3-yl)-4-[1-[1-(pyridin-2-ylmethyl)piperidin-4-yl]-1H-indol-3-yl]-1H-pyrrole-2,5-dione]
- IC50 [1]: 40 to 100 nM
- overall survival, AA or AB genotype vs BB genotype at rs309605 (GBM patients): better overall survival
- survival, chromaturia vs without chromaturia (GBM patients): significant improved survival
- VEGF induced angiogenesis [2]: suppresses VEGF induced angiogenesis
- growth of human cancer xenografts [3]: suppresses growth of multiple human cancer xenografts
- survival, AA+AB vs BB genotype at rs309605 (DLBCL patients [4]; enzastaurin treatment arm, with R-CHOP): significant better survival
- overall survival, enzastaurin arm vs control arm (DLBCL patients [4]; general patient population, with R-CHOP): no significant difference
- Progression Free (PFS) survival and overall survival, enzastaurin arm (DLBCL patients [4]; patients AA+AB at rs309605 and rs309604 and IPI>2): superior efficacy
- intracellular signaling through the PKC and PI3K/AKT pathways ([5]; clinically relevant concentrations, suppresses phosphorylation of AKT, mTOR, p70S6K, S6, 4EBP1, CREB, GSK3β): blocks intracellular signaling through the PKC and PI3K/AKT pathways
- tumor cell apoptosis ([5]; cultured cancer cells): induces tumor cell apoptosis
- tumor cell proliferation ([5]; cultured cancer cells): inhibits tumor cell proliferation
- overall survival, AA+AB vs BB genotype in patients without chromaturia (DLBCL patients [6]; 177 enzastaurin treated patients without chromaturia): no significant difference in overall survival
- Event per 1000 person-month (DLBCL patients [6]; AA + AB (rs309605), Chrom): 0.65 per 1000 person-month
- Number of events (OS) (DLBCL patients [6]; AA + AB (rs309605), Chrom, N 82): 3
- Event per 1000 person-month (DLBCL patients [6]; AA + AB (rs309605), Non-Chrom): 3.69 per 1000 person-month
- Number of events (OS) (DLBCL patients [6]; AA + AB (rs309605), Non-Chrom, N 158): 27
- Event per 1000 person-month (DLBCL patients [6]; All types (AA, AB, BB), Chrom): 1.96 per 1000 person-month
- Number of events (OS) (DLBCL patients [6]; All types (AA, AB, BB), Chrom, N 95): 10
- Event per 1000 person-month (DLBCL patients [6]; All types (AA, AB, BB), Non-Chrom): 4.83 per 1000 person-month
- Number of events (OS) (DLBCL patients [6]; All types (AA, AB, BB), Non-Chrom, N 187): 41
- number of patients who survived, AA+AB genotype (DLBCL patients [6]; [7]): 209
- number of patients who survived, BB genotype (DLBCL patients [6]; [7]): 22
- number of patients who had events, AA+AB genotype (DLBCL patients [6]; [8]): 31
- number of patients who had events, BB genotype (DLBCL patients [6]; [8]): 22
- overall survival, AA+AB genotype vs BB genotype (DLBCL patients [6]; enzastaurin treated arm, rs309605 and rs309604): significantly improved survival; also recorded: significant longer overall survival
- overall survival, AA+AB genotype at rs309605 with chromaturia (DLBCL patients [6]; interaction of genotype and chromaturia, p value=0.017): best overall survival
- overall survival / efficacy, enzastaurin arm vs placebo arm (DLBCL patients [6]; overall patient population, N=504 vs N=254, 500 mg daily oral): failed to demonstrate statistically significant efficacy; also recorded: no significant difference
